{"source": "patent US20240390395A1", "about": "“APPLICATION OF ION CHANNEL BLOCKER IN TREATMENT AND/OR PREVENTION OF HEPATIC FIBROSIS” (Affiliated Hospital of Zunyi Medical University, priority 2023, published 2024)", "key": {"[1]": {"tested_on": "CCl4-induced hepatic fibrosis mice", "assay": "CCl4-induced mouse hepatic fibrosis, HE staining and Sirius-red staining of hepatic tissue", "format": "in vivo", "conditions": "gliclazide solution 500 μM, C57 mice", "protocol": "Experimental materials include 60 healthy male C57 mice (20-25 g per mouse, purchased from Chongqing […] Biotechnology Co., Ltd.), gavage needles, 1 milliliter (mL) syringes, CCI4 solution, olive oil, and gliclazide solution. An experimental method is as follows. The CCl4 solution is prepared by dissolving CCl4 in the olive oil (a volume ratio of CCl4 to olive oil is 1:4), and the prepared CCl4 solution should be used immediately. The gliclazide solution is prepared by dissolving gliclazide in physiological saline, the concentration of the gliclazide solution is 500 micromoles per liter (μM), and the prepared gliclazide solution should be used immediately. The mice are randomly divided into four groups including a, b, c, and d. • a. Normal control group. • b. Model group: mice are intragastrically administered with the CCl4 solution, 0.1 mL/20 g (i.e., 0.1. mL CC14 per 20 g of body weight of mice), twice a week for 8 weeks. • c. CCl4+gliclazide group: mice are intragastrically administered with the CCl4 solution alone, 0.1 mL/20 g, twice a week for 2 weeks; then the mice are given with the gliclazide solution and the CCl4 solution together for 6 weeks; and an administration method of the gliclazide solution is 0.2mL/20g and intraperitoneal injection once a day. • d. Gliclazide group: the gliclazide solution is intraperitoneally injected into mice for 8 weeks; and an administration method of the gliclazide solution is 0.2 mL/20 g and intraperitoneal injection once a day. The mice are sacrificed at the 2nd, 4th, 6th and 8th weeks of modeling respectively, and one mouse in each group is sacrificed each time. Hepatic samples obtained from the sacrificed mice are taken out and stored in liquid nitrogen at -80 Celsius degrees (° C.), and the other hepatic samples are fixed in paraformaldehyde with a concentration of 4% for 24 hours, then the other hepatic samples are embedding in paraffin. The degrees of severity of hepatic fibrosis are observed by appearance, Sirius-red staining, and hematoxylin-eosin (HE) staining. […]"}, "[2]": {"tested_on": "α-SMA", "assay": "α-SMA in hepatic tissues detected by immunohistochemistry", "format": "in vivo, mouse", "conditions": "CCl4-induced hepatic fibrosis mice; gliclazide solution 500 μM intraperitoneal", "protocol": "The mice are randomly divided into four groups including a, b, c, and d. • a. Normal control group. • b. Model group: mice are intragastrically administered with the CCl4 solution, 0.1 mL/20 g (i.e., 0.1. mL CC14 per 20 g of body weight of mice), twice a week for 8 weeks. • c. CCl4+gliclazide group: mice are intragastrically administered with the CCl4 solution alone, 0.1 mL/20 g, twice a week for 2 weeks; then the mice are given with the gliclazide solution and the CCl4 solution together for 6 weeks; and an administration method of the gliclazide solution is 0.2mL/20g and intraperitoneal injection once a day. • d. Gliclazide group: the gliclazide solution is intraperitoneally injected into mice for 8 weeks; and an administration method of the gliclazide solution is 0.2 mL/20 g and intraperitoneal injection once a day. […] An experimental method is as follows."}, "[3]": {"tested_on": "α-SMA", "assay": "α-SMA in hepatic tissues detected by Western blotting", "format": "in vivo, mouse", "conditions": "CCl4-induced hepatic fibrosis mice; gliclazide solution 500 μM intraperitoneal", "protocol": "(§1) The mice are randomly divided into four groups including a, b, c, and d. • a. Normal control group. • b. Model group: mice are intragastrically administered with the CCl4 solution, 0.1 mL/20 g (i.e., 0.1. mL CC14 per 20 g of body weight of mice), twice a week for 8 weeks. • c. CCl4+gliclazide group: mice are intragastrically administered with the CCl4 solution alone, 0.1 mL/20 g, twice a week for 2 weeks; then the mice are given with the gliclazide solution and the CCl4 solution together for 6 weeks; and an administration method of the gliclazide solution is 0.2mL/20g and intraperitoneal injection once a day. • d. Gliclazide group: the gliclazide solution is intraperitoneally injected into mice for 8 weeks; and an administration method of the gliclazide solution is 0.2 mL/20 g and intraperitoneal injection once a day. Experimental materials include mouse hepatic tissues, a tweezer, a scissor, steel balls with a size of 2 millimeters (mm), a magnet, a cell lysis solution, a PBS solution, a bicinchoninic acid (BCA) protein assay kit, non-fat powdered milk, primary antibodies and corresponding secondary antibodies related to α-SMA, LC3, and p62. An experimental method is as follows. […] The optical density (OD) value at 560 nanometers (nm) is measured by using an enzyme-linked immunosorbent assay (ELISA) on the machine to calculate the concentration of the protein. […]"}, "[4]": {"tested_on": "LC3", "assay": "LC3 in hepatic tissues detected by Western blotting", "format": "in vivo, mouse", "conditions": "CCl4-induced hepatic fibrosis mice; gliclazide solution 500 μM intraperitoneal", "protocol": "as §1"}, "[5]": {"tested_on": "p62", "assay": "p62 in hepatic tissues detected by Western blotting", "format": "in vivo, mouse", "conditions": "CCl4-induced hepatic fibrosis mice; gliclazide solution 500 μM intraperitoneal", "protocol": "as §1"}, "[6]": {"tested_on": "HSCs-T6", "assay": "HSCs proliferation under co-culture of gliclazide and TGF-β1 detected by CCK8", "format": "cell-based, rat", "conditions": "TGF-β1 10 ng/mL, 48 hours, P<0.05", "protocol": "Experimental materials include HSCs-T6, a Dulbecco's modified eagle medium (DMEM) complete culture medium, a 96-well plate, a counting chamber (also referred to as hemocytometer), CCK-8 working solution, and the like. An experimental method is as follows. First, HSCs-T6 are cultured in the DMEM culture medium containing 10% fetal bovine serum, 1% double antibody (penicillin streptomycin solution) and 1% nonessential amino acid (NEAA), and the culture conditions include 37° C. and 5% CO2. The cells are digested by using trypsin for passage cultivation after the cells are converged to 80% to 90%. Next, the cells are inoculated in the plate, specifically, a density of […] cell suspension with a volume of 100 μL is added into each well of the 96-well plate, each group has 6 replicate wells. This experiment is divided into a control group and a TGF-β1 group, TGF-β1+gliclazide (the gliclazide used in this group has different concentrations of 50μM, 100μM, 150μM, and 200μM) medicament groups. After cell attachment, except for the control group and the TGF-β1 group, the other groups are added with gliclazide with the above concentrations respectively, and after 3 hours, TGF-β1 (10 ng/mL) is added to corresponding groups for stimulating HSCs of […]. After 48 hours of incubation, 100 μL mixed solution of “10% CCK8+90% culture medium” is added into each well. Then the incubation is performed at 37° C. for 1˜4 h, a wavelength is set at 450 nm, and an automatic enzyme analyzer is used to read and record absorbance values at the corresponding wavelength. The effects of gliclazide on cell proliferation are detected by CCK8, and the optimal action time and optimal medicament concentration are screened."}, "[7]": {"tested_on": "α-SMA", "assay": "α-SMA in HSCs detected by Western blotting", "format": "cell-based, rat", "conditions": "HSCs-T6; gliclazide 100 βM; TGF-β1 10 ng/ml; 48 hours", "protocol": "(§2) Experimental materials include HSCs-T6, a DMEM complete culture medium, cell culture dishes, a cell lysis solution, a PBS solution, a BCA protein assay kit, non-fat powdered milk, primary antibodies and corresponding secondary antibodies related to α-SMA, LC3, and p62. Experimental method is as follows. First, this experiment is divided into a normal group, a TGF-β1 group, a gliclazide +TGF-β1 group, and a gliclazide group. The concentration of the TGF-β1 is 10 ng/ml, and the concentration of the gliclazide is 100 βM. The the HSCs-T6 is cultured by using the cell culture dish, and inoculated, administrated, added with TGF-β1 according to the conditions described in the embodiment 4. After 48 hours, the incubated cells are rinsed by the precooled PBS solution for 3-4 times, and residual PBS liquid is absorbed with a filter paper, 50 μL radioimmune precipitation assay (RIPA) buffer and 0.5 μL (100:1) phenylmethanesulfonyl fluoride (PMSF) with a concentration of 100millimoles per liter (mmol/L) are added in a 50 mL culture flask and placed on ice for 30 minutes. Then, the protein is scraped by a cell scraper from the culture flask and suctioned out into the EP tubes, and centrifuged at 12000 rpm for 30 minutes at 4° C. […] The OD value at 560 nm is measured by using ELISA on the machine to calculate the concentration of the protein. […]"}, "[8]": {"tested_on": "LC3", "assay": "LC3 in HSCs detected by Western blotting", "format": "cell-based, rat", "conditions": "HSCs-T6; gliclazide 100 βM; TGF-β1 10 ng/ml; 48 hours", "protocol": "as §2"}, "[9]": {"tested_on": "p62", "assay": "p62 in HSCs detected by Western blotting", "format": "cell-based, rat", "conditions": "HSCs-T6; gliclazide 100 βM; TGF-β1 10 ng/ml; 48 hours", "protocol": "as §2"}, "[10]": {"tested_on": "α-SMA", "assay": "α-SMA in HSCs added with autophagy agonist rapamycin, Western blotting", "format": "cell-based, rat", "conditions": "HSCs-T6; gliclazide 100 βM; TGF-β1 10 ng/ml; 48 hours; P<0.05", "protocol": "Experimental materials include HSCs-T6, rapamycin, a DMEM complete culture medium, cell culture dishes, a cell lysis solution, a PBS solution, a BCA protein assay kit, non-fat powdered milk, primary antibodies and corresponding secondary antibodies related to α-SMA, LC3, and p62.\nExperimental method is as follows. First, this experiment is divided into a normal group, a TGF-β1 group, a gliclazide +TGF-β1 group, and a gliclazide +TGF-β1 +rapamycin group. The concentration of the TGF-β1 is 10 ng/ml, the concentration of the gliclazide is 100 βM, and the concentration of the rapamycin is 100 nanomoles per liter (nM). The TGF-β1 is added at the same time as that in the embodiment 5, and rapamycin and gliclazide are added simultaneously. After 48 hours of incubation, the above groups are detected by the BCA protein assay kit and Western blotting."}, "[11]": {"conditions": "CCl4+gliclazide group vs model group, 0.2 mL/20 g intraperitoneal once a day for 6 weeks"}}, "data": [{"compound": "Cc1ccc(S(=O)(=O)NC(=O)NN2CC3CCCC3C2)cc1", "note": "(centres unmarked) [gliclazide]", "values": [{"measurement": "degree of hepatic fibrosis (HE staining)", "setting": "[1]; [11]", "result": "significantly decreased"}, {"measurement": "degree of hepatic tissue injury (HE staining)", "setting": "[1]; [11]", "result": "significantly decreased"}, {"measurement": "collagen fibers in hepatic tissue (Sirius-red staining)", "setting": "[1]; gliclazide group without CCl4, 0.2 mL/20 g intraperitoneal once a day for 8 weeks", "result": "no obvious collagen fibers are observed"}, {"measurement": "expression of α-SMA in hepatic tissues (immunohistochemistry)", "setting": "[2]", "result": "down-regulate"}, {"measurement": "expression of α-SMA in hepatic tissue (Western blotting)", "setting": "[3]", "result": "significantly decreases"}, {"measurement": "expression of LC3 in hepatic tissue (Western blotting)", "setting": "[4]", "result": "significantly decreases"}, {"measurement": "expression level of autophagy substrate p62 in hepatic tissue (Western blotting)", "setting": "[5]", "result": "significantly increases"}, {"measurement": "proliferation of HSC-T6 induced by TGF-β1 (CCK8)", "setting": "[6]; gliclazide 100 μM", "result": "inhibits the proliferation"}, {"measurement": "proliferation of HSC-T6 induced by TGF-β1 (CCK8)", "setting": "[6]; gliclazide 150 μM", "result": "inhibits the proliferation"}, {"measurement": "proliferation of HSC-T6 induced by TGF-β1 (CCK8)", "setting": "[6]; gliclazide 200 μM", "result": "inhibits the proliferation"}, {"measurement": "expression of α-SMA in HSCs (Western blotting)", "setting": "[7]", "result": "significantly decreases"}, {"measurement": "expression of LC3 in HSCs (Western blotting)", "setting": "[8]", "result": "significantly decreases"}, {"measurement": "expression level of autophagy substrate p62 in HSCs (Western blotting)", "setting": "[9]", "result": "significantly increases"}, {"measurement": "protein expression level of α-SMA, gliclazide +TGF-β1 group vs TGF-β1 group", "setting": "[10]", "result": "significantly lower"}]}]}
